Source: patent publication US10544129B2, “Crystalline forms of AP26113, and preparation method thereof” (Crystal Pharmatech Co., Ltd., priority 2016, dated 2020)
Converted amounts (≈) assume the structure as drawn. Read-outs that look alike come from different tables or passages of the source.

Assays:
Assay type in all cases: physicochemical
Particle size study = test: Particle size study
Experimental: Particle size distribution of Forms CS1 and Form CS2 of the present disclosure and Form A of the prior art are tested. The average particle size of Form A is 12.58 μm, which is too small to be isolated effectively in the crystallization process. The Average particle sizes of Forms CS1 and Form CS2 are 175.0 μm and 151.9 μm, which are much larger than that of Form A. Compared with Form A, Form CS1 and Form CS2 with large particle size have less electrostatic attraction and can be separated more easily during the crystallization process. Moreover, the mixing non uniformity in the preparation process can be avoided, the quality of the drug is more controllable. At the same time, the crystal growth of the large particle size crystals is more perfect, and the adsorption of the solvent or the impurity on the crystals can be avoided, which is more helpful for purification.

[1] = Solubility study in H2O (saturated solutions, HPLC)
Experimental: Samples of Form CS1 of this present disclosure and Form A were suspended in H2O to get saturated solutions. After equilibrated for 1 h and 4 hours, the concentrations of the saturated solutions were measured by high performance liquid chromatography (HPLC).

[2] = Dissolution study (intrinsic dissolution rate, rotating disk); details: for Cumulative dissolution: phosphate buffer pH 6.8, 37° C.; for intrinsic dissolution rate: linear fit of cumulative dissolution with time, phosphate buffer pH 6.8
Experimental: The dissolution data were collected on an Agilent 708-DS.
100 mg of Form CS2 and Form A were added into the die of intrinsic dissolution rate (IDR) tooling, and then compressed at 12 KN for 1 min.
Dissolution medium: phosphate buffer (pH 6.8)
Dissolution method: rotating disk
Revolving speed: 1000 rpm
Medium temperature: 37° C.

[3] = Stability study at 25° C./60% RH (XRPD, purity); details: one month and three months
Experimental: Approximately 10 mg of Form CS2 were stored in a temperature and humidity controlled chamber at 25° C./60% RH, and samples were taken for XRPD at the beginning and after stored for one month and three months. The results are as depicted in FIG. 13.

[4] = Solubility study in FaSSIF and SGF (saturated solutions, HPLC); details: for solubility at 1 h / solubility at 4 h: thermodynamic from solid
Experimental: Samples of Form CS2 of the present disclosure and Form A were suspended in FaSSIF (Fasted state simulated intestinal fluids) and SGF (Simulated gastric fluids) to get saturated solutions. The concentrations of the saturated solutions were measured by high performance liquid chromatography (HPLC) at fixed time points.

SMILES	average particle size (Particle size study) [μm]	Solubility H2O ([1]; 1 h) [µg/mL]	Solubility H2O ([1]; 4 h) [µg/mL]	Cumulative dissolution ([2]; 10 min) [mg]	Cumulative dissolution ([2]; 15 min) [mg]	Cumulative dissolution ([2]; 20 min) [mg]	Cumulative dissolution ([2]; 25 min) [mg]	Cumulative dissolution ([2]; 30 min) [mg]	intrinsic dissolution rate [2] [mg/min]	solubility in SGF (in words) ([4]; SGF)	other results
COc1cc(N2CCC(N3CCN(C)CC3)CC2)ccc1Nc1ncc(Cl)c(Nc2ccccc2P(C)(C)=O)n1 [Form CS1, AP26113]	175.0	1000 (≈ 1.71 mM)	610 (≈ 1.04 mM)								solubility in water, times higher than that of Form A ([1]; water, relative to Form A): 16 times
COc1cc(N2CCC(N3CCN(C)CC3)CC2)ccc1Nc1ncc(Cl)c(Nc2ccccc2P(C)(C)=O)n1 [Form CS2, AP26113]	151.9			6.4	8.0	9.4	10.7	11.8	0.268	good solubility	dissolution rate, times higher than that of Form A ([2]; relative to Form A): 5 times; purity after storage ([3]; beginning): above 99%; crystalline form after storage (XRPD) [3]: doesn't change; solubility higher than that of Form A ([4]; FaSSIF, one hour, relative to Form A): 43%; solubility at 1 h ([4]; FaSSIF, FaSSIF, 1 h, read-out: Solubility FaSSIF): 9900 µg/mL (≈ 16.9 mM); solubility at 4 h ([4]; FaSSIF, FaSSIF, 4 h, read-out: Solubility FaSSIF): 9600 µg/mL (≈ 16.4 mM); solubility at 1 h ([4]; SGF, simulated gastric fluid, SGF, 1 h, read-out: Solubility SGF): 11200 µg/mL (≈ 19.2 mM); solubility at 4 h ([4]; SGF, simulated gastric fluid, SGF, 4 h, read-out: Solubility SGF): 12100 µg/mL (≈ 20.7 mM)
COc1cc(N2CCC(N3CCN(C)CC3)CC2)ccc1Nc1ncc(Cl)c(Nc2ccccc2P(C)(C)=O)n1 [Form A, AP26113]	12.58	61 (≈ 0.104 mM)	67 (≈ 0.115 mM)	0.6	0.9	1.1	1.4	1.6	0.052	good solubility	solubility in water (in words) ([1]; water): poor; Solubility FaSSIF ([4]; FaSSIF, 1 h): 6900 µg/mL (≈ 11.8 mM); Solubility FaSSIF ([4]; FaSSIF, 4 h): 7200 µg/mL (≈ 12.3 mM); Solubility SGF ([4]; SGF, 1 h): 10900 µg/mL (≈ 18.7 mM); Solubility SGF ([4]; SGF, 4 h): 10900 µg/mL (≈ 18.7 mM)
